For the first assay, the system named is MLKL phosphorylation (pMLKL) in HT29-L23 cells. Description: MLKL Phosphorylation High-Content Assay. It counts as cell-based. The settings on record: Homo sapiens, 6 h, necroptosis induced with human TNFα, SMAC mimetic and Z-VAD, read-out: LE pMLKL HC IC50. In short, it runs like this:
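HT29-L23 cells incubated 6 h at 37° C before detection of phospho-MLKL by immunostaining with anti-phospho-MLKL antibody (1:1000 in PBS/0.1% BSA, overnight at 4° C). Readout by high-content imaging with compartmental image analysis.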
In the case of `Nc1nc2cc(-c3cccc(OCCC(F)(F)COc4cc(Cl)ccn4)c3F)ccn2n1` [Example 1, 7-(3-(4-((4-chloropyridin-2-yl)oxy)-3,3-difluorobutoxy)-2-fluorophenyl)-[1,2,4]triazolo[1,5-a]pyridin-2-amine], the IC50 amounted to 0.14 µM.

For the compound `Nc1nc2cc(-c3cccc(OCCC(F)(F)Oc4ccc(F)cc4)c3F)ccn2n1` [Example 65, 7-(3-(3,3-difluoro-3-(4-fluorophenoxy)propoxy)-2-fluorophenyl)-[1,2,4]triazolo[1,5-a]pyridin-2-amine], the 50% inhibitory concentration (IC50) is 0.14 µM. In the case of `Nc1nc2cc(-c3cccc(OCCC(F)(F)Cc4ccccc4)c3F)ccn2n1` [Example 74, 7-(3-(3,3-difluoro-4-phenylbutoxy)-2-fluorophenyl)-[1,2,4]triazolo[1,5-a]pyridin-2-amine], the IC50 worked out at 0.005 µM.

Staying with this assay, now noted: necroptosis induced with human TNFα, SMAC mimetic and Z-VAD, 6 h, read-out: LE pMLKL HC IC50.
Consider `Nc1nc2cc(-c3cc(F)c(F)c(OCCC(F)C(O)c4ccc(F)cc4)c3)ccn2n1` (single isomer, unassigned) [Example 117, 4-(5-(2-amino-[1,2,4]triazolo[1,5-a]pyridin-7-yl)-2,3-difluorophenoxy)-2-fluoro-1-(4-fluorophenyl)butan-1-ol], for which the IC50 is 0.58 µM. Still for that read-out and setting: to `Nc1nc2cc(-c3cc(F)c(F)c(OCCC(F)C(O)c4ccc(F)cc4)c3)ccn2n1` (single isomer, unassigned) [Example 118, 4-(5-(2-amino-[1,2,4]triazolo[1,5-a]pyridin-7-yl)-2,3-difluorophenoxy)-2-fluoro-1-(4-fluorophenyl)butan-1-ol] belongs 1.04 µM; to `Nc1nc2cc(-c3cc(F)c(F)c(OCCC(F)C(O)c4ccc(F)cc4)c3)ccn2n1` (single isomer, unassigned) [Example 119, 4-(5-(2-amino-[1,2,4]triazolo[1,5-a]pyridin-7-yl)-2,3-difluorophenoxy)-2-fluoro-1-(4-fluorophenyl)butan-1-ol], 0.58 µM. Consider `Cc1ccc(-c2ccn3nc(N)nc3c2)c(F)c1OCCC(F)C(F)(F)c1ccc(F)cc1` (single isomer, unassigned) [Example 120, 7-(2-fluoro-4-methyl-3-(3,4,4-trifluoro-4-(4-fluorophenyl)butoxy)phenyl)-[1,2,4]triazolo[1,5-a]pyridin-2-amine], for which the 50% inhibitory concentration (IC50) was found to be 0.0096 µM. In the case of `Cc1ccc(-c2ccn3nc(N)nc3c2)c(F)c1OCCC(F)C(F)(F)c1ccc(F)cc1` (single isomer, unassigned) [Example 121, 7-(2-fluoro-4-methyl-3-(3,4,4-trifluoro-4-(4-fluorophenyl)butoxy)phenyl)-[1,2,4]triazolo[1,5-a]pyridin-2-amine], the IC50 amounted to 0.089 µM. On the same count and under the same terms, to `CC(O)(c1cccc(F)c1)C(F)(F)CCOc1c(F)ccc(-c2ccn3nc(N)nc3c2)c1F` (single isomer, unassigned) [Example 122, 5-(3-(2-amino-[1,2,4]triazolo[1,5-a]pyridin-7-yl)-2,6-difluorophenoxy)-3,3-difluoro-2-(3-fluorophenyl)pentan-2-ol] belongs 0.13 µM.

As to `CC(O)(c1cccc(F)c1)C(F)(F)CCOc1c(F)ccc(-c2ccn3nc(N)nc3c2)c1F` (single isomer, unassigned) [Example 123, 5-(3-(2-amino-[1,2,4]triazolo[1,5-a]pyridin-7-yl)-2,6-difluorophenoxy)-3,3-difluoro-2-(3-fluorophenyl)pentan-2-ol], the IC50 was 0.0009 µM. For the compound `CC(O)(c1ccccc1F)C(F)(F)CCOc1c(F)ccc(-c2ccn3nc(N)nc3c2)c1F` (single isomer, unassigned) [Example 124, 5-(3-(2-amino-[1,2,4]triazolo[1,5-a]pyridin-7-yl)-2,6-difluorophenoxy)-3,3-difluoro-2-(2-fluorophenyl)pentan-2-ol], the IC50 was 0.16 µM. Same read-out and setting: to `CC(O)(c1ccccc1F)C(F)(F)CCOc1c(F)ccc(-c2ccn3nc(N)nc3c2)c1F` (single isomer, unassigned) [Example 125, 5-(3-(2-amino-[1,2,4]triazolo[1,5-a]pyridin-7-yl)-2,6-difluorophenoxy)-3,3-difluoro-2-(2-fluorophenyl)pentan-2-ol] belongs 0.0006 µM; to `CC(CC(F)(F)C(C)(O)c1ccc(F)cc1)Oc1c(F)ccc(-c2ccn3nc(N)nc3c2)c1F` (single isomer, unassigned) [Example 126, 5-(3-(2-amino-[1,2,4]triazolo[1,5-a]pyridin-7-yl)-2,6-difluorophenoxy)-3,3-difluoro-2-(4-fluorophenyl)hexan-2-ol], 0.37 µM. As to `CC(CC(F)(F)C(C)(O)c1ccc(F)cc1)Oc1c(F)ccc(-c2ccn3nc(N)nc3c2)c1F` (single isomer, unassigned) [Example 127, 5-(3-(2-amino-[1,2,4]triazolo[1,5-a]pyridin-7-yl)-2,6-difluorophenoxy)-3,3-difluoro-2-(4-fluorophenyl)hexan-2-ol], the IC50 amounted to 0.0011 µM. `CC(CC(F)(F)C(C)(O)c1ccc(F)cc1)Oc1c(F)ccc(-c2ccn3nc(N)nc3c2)c1F` (single isomer, unassigned) [Example 128, 5-(3-(2-amino-[1,2,4]triazolo[1,5-a]pyridin-7-yl)-2,6-difluorophenoxy)-3,3-difluoro-2-(4-fluorophenyl)hexan-2-ol]: the IC50 was determined as 0.17 µM.

For the compound `CC(CC(F)(F)C(C)(O)c1ccc(F)cc1)Oc1c(F)ccc(-c2ccn3nc(N)nc3c2)c1F` (single isomer, unassigned) [Example 129, 5-(3-(2-amino-[1,2,4]triazolo[1,5-a]pyridin-7-yl)-2,6-difluorophenoxy)-3,3-difluoro-2-(4-fluorophenyl)hexan-2-ol], the IC50 stood at 0.07 µM. The same measure, in the same setting: to `CC(C)(CC(F)(F)C(C)(O)c1ccc(F)cc1)Oc1c(F)ccc(-c2ccn3nc(N)nc3c2)c1F` (single isomer, unassigned) [Example 130, 5-(3-(2-amino-[1,2,4]triazolo[1,5-a]pyridin-7-yl)-2,6-difluorophenoxy)-3,3-difluoro-2-(4-fluorophenyl)-5-methylhexan-2-ol] belongs 4.2 µM; to `CC(C)(CC(F)(F)C(C)(O)c1ccc(F)cc1)Oc1c(F)ccc(-c2ccn3nc(N)nc3c2)c1F` (single isomer, unassigned) [Example 131, 5-(3-(2-amino-[1,2,4]triazolo[1,5-a]pyridin-7-yl)-2,6-difluorophenoxy)-3,3-difluoro-2-(4-fluorophenyl)-5-methylhexan-2-ol], 0.0034 µM.

Usually IC50 stands for the midpoint of a concentration-inhibition curve.

These data come from patent US20260217711A1, “TRIAZOLOPYRIDINYL ETHER LINKED COMPOUNDS AS KINASE INHIBITORS” (Bristol-Myers Squibb Company, priority 2023, published 2026).
